{
  "source": "patent US7265220B2",
  "about": "“Amino acid derivatives, method for production thereof and pharmaceutical compositions comprising said derivative” (Les Laboratories Servier, priority 2002, dated 2007)",
  "assay_type_in_all_cases": "biochemical",
  "key": {"[1]": {"biological_target": "T1, purified human activated protein C (Homo sapiens, UniProt P04070)", "T1 construct": "purchased Diagnostica Stago", "T1 sequence (P04070 212-461 limits assumed)": "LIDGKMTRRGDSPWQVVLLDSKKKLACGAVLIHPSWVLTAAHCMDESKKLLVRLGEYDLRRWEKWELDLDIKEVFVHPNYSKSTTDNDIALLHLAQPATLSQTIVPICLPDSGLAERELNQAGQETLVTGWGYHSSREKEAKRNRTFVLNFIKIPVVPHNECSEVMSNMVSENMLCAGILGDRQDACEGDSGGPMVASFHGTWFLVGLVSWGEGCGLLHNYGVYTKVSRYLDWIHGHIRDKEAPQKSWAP", "T1 sequence (P04070 43-197 limits assumed)": "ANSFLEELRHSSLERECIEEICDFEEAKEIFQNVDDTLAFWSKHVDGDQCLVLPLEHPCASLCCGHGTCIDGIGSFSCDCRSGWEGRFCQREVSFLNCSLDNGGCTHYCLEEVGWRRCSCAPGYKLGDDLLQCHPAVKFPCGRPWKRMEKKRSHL", "test": "Inhibition of purified human activated protein C, chromogenic substrate S2366", "conditions": "activated protein C 2 nM, inhibitor preincubated 20° C., 30 minutes, substrate pyroGlu-Pro-Arg-pNA 0.39 mM, read at 405 nm; read-out: IC50 with respect to activated protein C", "protocol": "(§1) The inhibitors, enzymes and substrates are diluted in the same buffer (0.01 mM phosphate buffer pH 7.4 containing 0.12M sodium chloride and 0.05% bovine serum albumin in the case of thrombin and 50 mM TRIS-HCl buffer pH 7.4 containing 0.12M sodium chloride, 3 mM calcium chloride and 0.05% bovine serum albumin in the case of activated protein C and plasmin) and then dispensed in a volume of 50 μl onto a polystyrene microplate."}, "purified human plasmin": {"biological_target": "T2, purified human plasmin (Homo sapiens, UniProt P00747)", "T2 construct": "purified human plasmin (2 nM, Stago); purchased Stago", "T2 sequence (P00747 581-810 limits assumed)": "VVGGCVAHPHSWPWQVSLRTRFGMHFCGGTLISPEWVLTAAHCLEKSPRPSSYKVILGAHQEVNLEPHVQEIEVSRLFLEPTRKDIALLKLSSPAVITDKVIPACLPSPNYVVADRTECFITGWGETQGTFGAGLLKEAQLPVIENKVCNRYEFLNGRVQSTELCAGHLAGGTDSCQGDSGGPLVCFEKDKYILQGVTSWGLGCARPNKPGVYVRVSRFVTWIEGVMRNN", "T2 sequence (P00747 97-580 limits assumed)": "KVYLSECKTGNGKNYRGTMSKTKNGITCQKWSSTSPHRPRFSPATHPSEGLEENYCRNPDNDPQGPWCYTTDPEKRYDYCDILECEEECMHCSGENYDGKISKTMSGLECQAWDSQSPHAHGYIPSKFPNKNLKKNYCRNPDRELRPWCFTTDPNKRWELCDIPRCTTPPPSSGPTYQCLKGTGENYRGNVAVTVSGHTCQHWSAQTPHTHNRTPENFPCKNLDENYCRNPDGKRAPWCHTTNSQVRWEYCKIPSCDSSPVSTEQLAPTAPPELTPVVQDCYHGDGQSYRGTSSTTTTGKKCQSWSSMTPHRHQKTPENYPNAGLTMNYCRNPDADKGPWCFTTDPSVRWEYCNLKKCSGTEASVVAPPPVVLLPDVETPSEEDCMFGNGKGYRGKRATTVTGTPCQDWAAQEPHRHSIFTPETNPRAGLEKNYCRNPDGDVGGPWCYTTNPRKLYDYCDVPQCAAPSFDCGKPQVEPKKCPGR", "test": "Inhibition of purified human plasmin, chromogenic substrate S2403 (selectivity)", "conditions": "plasmin 2 nM, substrate <Glu-Phe-Lys-pNA 0.37 mM, read at 405 nm; read-out: IC50 with respect to plasmin", "description": "In order to assess in vitro the inhibitory activity of products of the invention on purified human activated protein C (Diagnostica Stago), the chromogenic substrate pyroGlu-Pro-Arg-pNA (0.39 mM, S2366, Chromogenix) was added to a given amount of activated protein C (2 nM) previously incubated with or without the inhibitor under test (20° C., 30 minutes).\nIn order to assess in vitro the selectivity with respect to thrombin and plasmin, the same protocol was applied to purified human thrombin (0.7 nM, Sigma) and to purified human plasmin (2 nM, Stago), using as substrates purified human fibrinogen (6 μM, Enzyme Research Laboratories) and the paracitroanilide peptide <Glu-Phe-Lys-pNA (0.37 mM, S2403, Chromogenix), respectively.\nThe inhibitors, enzymes and substrates are diluted in the same buffer ([…] phosphate buffer pH 7.4 containing 0.12M sodium chloride and 0.05% bovine serum albumin in the case of thrombin and 50 mM TRIS-HCl buffer pH 7.4 containing 0.12M sodium chloride, 3 mM calcium chloride and 0.05% bovine serum albumin in the case of activated protein C and plasmin) and then dispensed in a volume of 50 μl onto a polystyrene microplate.\nThe paranitroanilide liberated or the fibrin formed by the action of the serine protease is measured spectrophotometrically at 405 nm after reacting for from 10 to 30 minutes at 20° C."}, "purified human thrombin": {"biological_target": "purified human thrombin (Homo sapiens, UniProt P00734)", "test": "Inhibition of purified human thrombin, fibrinogen substrate (selectivity)", "conditions": "thrombin 0.7 nM, substrate human fibrinogen 6 μM, fibrin formed read at 405 nm; read-out: IC50 with respect to thrombin", "protocol": "as §1"}},
  "note": "Structures can show the parent of a compound that is named as a salt.",
  "data": [
    {"molecule": "N=C(N)c1ccc(CNC(=O)C2(NC(=O)[C@H](NCC(=O)O)C3CCCCC3)Cc3ccccc3C2)cc1", "note": "[Example 1, {[(1R)-2-({2-[({4-Amidinobenzyl}-amino)-carbonyl]-indan-2-yl}-amino)-1-cyclohexyl-2-oxoethyl]-amino}acetic acid hydrochloride]", "values": [
      {"measurement": "IC50", "setting": "[1]", "value": 820, "unit": "nM"},
      {"measurement": "IC50", "setting": "purified human plasmin", "value": 1100, "unit": "nM"},
      {"measurement": "IC50", "setting": "purified human thrombin", "value": "> 33", "unit": "µM"}
    ]}
  ]
}
